Laboratory results from patent publication US8426447B2, “Spiro-tricyclic ring compounds as beta-secretase modulators and methods of use” (Amgen Inc., priority 2008, dated 2013).
pIC50: −log10 of the molar value.

Each compound was assayed against BACE1 (Homo sapiens, UniProt P56817) (assay: In Vitro Enzymatic BACE FRET (Fluorescence Resonance Energy Transfer) Assay). Settings: Table 1; read-out: BACE1 FRET assay.
Chain of BACE1 (P56817 46-501, species assumed): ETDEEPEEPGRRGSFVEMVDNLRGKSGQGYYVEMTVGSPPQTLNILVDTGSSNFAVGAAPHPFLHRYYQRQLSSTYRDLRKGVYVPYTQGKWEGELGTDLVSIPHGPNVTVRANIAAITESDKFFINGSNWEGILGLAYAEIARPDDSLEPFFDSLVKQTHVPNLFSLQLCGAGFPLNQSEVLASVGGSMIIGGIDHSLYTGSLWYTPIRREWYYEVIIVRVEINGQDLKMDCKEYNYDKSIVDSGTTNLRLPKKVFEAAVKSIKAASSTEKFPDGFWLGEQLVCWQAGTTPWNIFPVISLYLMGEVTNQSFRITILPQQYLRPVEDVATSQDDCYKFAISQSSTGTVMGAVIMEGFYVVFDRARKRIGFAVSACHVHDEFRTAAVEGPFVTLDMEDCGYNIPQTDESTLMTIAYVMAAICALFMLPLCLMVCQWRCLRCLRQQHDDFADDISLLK
Format: biochemical
Protocol: In Vitro Enzymatic BACE FRET (Fluorescence Resonance Energy Transfer) Assay (Enzyme Assay Data in the Example Tables I, II, III & IV) The assay buffer used in this screen is 0.05 M acetate, pH 4.2, 10% DMSO final, 100 uM genapol (which is a nonionic detergent, below its Critical Micelle Concentration). […] This assay is effectively started by the addition of FRET substrate (50 nM) and the combination is incubated for one hour. The FRET assay is terminated with by addition of Tris buffer, which raises the pH to neutrality, and the fluorescence is determined. The FRET substrate is a peptide with commercially available fluorophore and quencher, on opposite sides of the BACE cleavage site. […]
With Cc1ccc2c(c1)Oc1ccc(-c3ccc(OC(F)(F)F)cc3)cc1C21COC(N)=N1 (stereo not drawn) [Example 36, 6′-methyl-2′-(4-(trifluoromethoxy)phenyl)spiro[1,3-oxazole-4,9′-xanthen]-2-amine] the pIC50 was under 5.30.
COc1ccc2c(c1)[C@@]1(COC(N)=N1)c1cc(-c3cncnc3)ccc1O2 [Example 31, (4R)-2′-methoxy-7′-(5-pyrimidinyl)spiro[1,3-oxazole-4,9′-xanthen]-2-amine] gave a pIC50 of under 5.30.
Cc1cccc(-c2ccc3c(c2)C2(COC(N)=N2)c2ccc(C)cc2O3)c1 (stereo not drawn) [Example 33, 6′-methyl-2′-(3-methylphenyl)spiro[1,3-oxazole-4,9′-xanthen]-2-amine] gave a pIC50 of under 5.30.
NC1=NC2(CO1)c1cc(Cl)ccc1Oc1ccc(-c3cncnc3)cc12 (stereo not drawn) [Example 13, 2′-chloro-7′-(5-pyrimidinyl)spiro[1,3-oxazole-4,9′-xanthen]-2-amine] gave a pIC50 of 6.00 to 7.00.
Cc1ccc2c(c1)Oc1ccc(-c3ccccc3C)cc1C21COC(N)=N1 (stereo not drawn) [Example 34, 6′-methyl-2′-(2-methylphenyl)spiro[1,3-oxazole-4,9′-xanthen]-2-amine] was tested, and the pIC50 was under 5.30.

Same assay, conditions: Table II; read-out: BACE1 FRET assay
Work on NC1=N[C@]2(CO1)c1cc(C#CC3CC3)ccc1Oc1ccc(-c3cncnc3)cc12 [Example 101, (4R)-2′-(cyclopropylethynyl)-7′-(5-pyrimidinyl)spiro[1,3-oxazole-4,9′-xanthen]-2-amine] yielded a pIC50 of over 7.00.
NC1=N[C@]2(CO1)c1cc(OC[C@@H]3CC3(F)F)ccc1Oc1ccc(-c3cncnc3)cc12 [Example 97, (4S)-2′-(((1S)-2,2-difluorocyclopropyl)methoxy)-7′-(5-pyrimidinyl)spiro[1,3-oxazole-4,9′-xanthen]-2-amine] gave a pIC50 of over 7.00.
For NC1=N[C@]2(CO1)c1cc(C#CC3CCCC3)ccc1Oc1ccc(-c3cncnc3)cc12 [Example 95, (4R)-2′-(cyclopentylethynyl)-7′-(5-pyrimidinyl)spiro[1,3-oxazole-4,9′-xanthen]-2-amine], the pIC50 was over 7.00.
NC1=N[C@]2(CO1)c1cc(C(=O)CC3CCCC3)ccc1Oc1ccc(-c3cncnc3)cc12 [Example 102, 1-((4S)-2-amino-7′-(5-pyrimidinyl)spiro[1,3-oxazole-4,9′-xanthen]-2′-yl)-2-cyclopentylethanone] was tested, and the pIC50 was over 7.00.
Compound NC1=N[C@]2(CO1)c1cc(OCC3CCCO3)ccc1Oc1ccc(-c3cccnc3)cc12 (stereo partly drawn) [Example 99, (4S)-2′-(3-pyridinyl)-7′-(tetrahydro-2-furanylmethoxy)spiro[1,3-oxazole-4,9′-xanthen]-2-amine] has a pIC50 of over 7.00.
With NC1=N[C@@]2(CO1)c1cc(C#CC3CC3)ccc1Oc1ccc(OCC3CCCO3)cc12 (stereo partly drawn) [Example 103, (4S)-2′-(cyclopropylethynyl)-7′-(tetrahydro-2-furanylmethoxy)spiro[1,3-oxazole-4,9′-xanthen]-2-amine] the pIC50 was over 7.00.
Work on NC1=N[C@]2(CO1)c1cc(OCC3CCCCO3)ccc1Oc1ccc(-c3cncnc3)cc12 (stereo partly drawn) [Example 107, (4S)-2′-(5-pyrimidinyl)-7′-(tetrahydro-2H-pyran-2-ylmethoxy)spiro[1,3-oxazole-4,9′-xanthen]-2-amine] yielded a pIC50 of over 7.00.
In the case of NC1=N[C@]2(CO1)c1cc(OC[C@H]3CC3(F)F)ccc1Oc1ccc(-c3cncnc3)cc12 [Example 98, (4S)-2′-(((1R)-2,2-difluorocyclopropyl)methoxy)-7′-(5-pyrimidinyl)spiro[1,3-oxazole-4,9′-xanthen]-2-amine], the pIC50 was over 7.00.
CC(C)(C)C[C@H](O)c1ccc2c(c1)[C@]1(COC(N)=N1)c1cc(-c3cncnc3)ccc1O2 [Example 49, (1S)-1-((4S)-2-amino-7′-(5-pyrimidinyl)spiro[1,3-oxazole-4,9′-xanthen]-2′-yl)-3,3-dimethyl-1-butanol] gave a pIC50 of over 7.00.
For NC1=N[C@]2(CO1)c1cc(OC[C@@H]3CCCO3)ccc1Oc1ccc(-c3cncnc3)cc12 [Example 105, (4S)-2′-(5-pyrimidinyl)-7′-((2S)-tetrahydro-2-furanylmethoxy)spiro[1,3-oxazole-4,9′-xanthen]-2-amine], the pIC50 was over 7.00.
With NC1=N[C@]2(CO1)c1cc(OC[C@H]3CCCO3)ccc1Oc1ccc(-c3cncnc3)cc12 [Example 106, (4S)-2′-(5-pyrimidinyl)-7′-((2R)-tetrahydro-2-furanylmethoxy)spiro[1,3-oxazole-4,9′-xanthen]-2-amine] the pIC50 was over 7.00.

Same assay, conditions: in vitro BACE FRET enzyme assay, IC50 class symbols; read-out: BACE1 FRET assay
COc1ccc2c(c1)[C@@]1(COC(N)=N1)c1cc(N3CCOCC3)cc(F)c1O2 [compound 304] was tested, and the pIC50 was 6.00 to 7.00.
Work on CC(C)(C#N)COc1ccc2c(c1)[C@@]1(COC(N)=N1)c1cc(-c3ccc(C#N)cc3)cnc1O2 [compound 340] yielded a pIC50 of over 7.00.
In the case of Cc1cncc(-c2ccc3c(c2)[C@@]2(COC(N)=N2)c2cc(-c4ccncc4)ncc2O3)c1 [compound 305], the pIC50 was over 7.00.
Work on NC1=N[C@@]2(CO1)c1cc(-c3cncc(Cl)c3)ccc1Oc1cnc(-c3cccnc3)cc12 [compound 303] yielded a pIC50 of over 7.00.
NC1=N[C@@]2(CO1)c1cc(-c3cccnc3F)ccc1Oc1cnc(-c3ccc(F)nc3)cc12 [compound 312] gave a pIC50 of over 7.00.
For COc1ccc(-c2cnc3c(c2)[C@]2(COC(N)=N2)c2cc(OCC(C)(C)C#N)ccc2O3)cn1 [compound 341], the pIC50 was over 7.00.
CC1(C#Cc2cnc3c(c2)[C@]2(COC(N)=N2)c2cc(-c4cccnc4)ccc2O3)COC1 [compound 315] showed a pIC50 of over 7.00.
NC1=N[C@@]2(CO1)c1cc(-c3c(F)ccnc3F)ccc1Oc1ncc(C3=CCOCC3)cc12 [compound 321] showed a pIC50 of over 7.00.
NC1=N[C@@]2(CO1)c1cc(-c3cncc(Cl)c3)ccc1Oc1cnc(-c3ccncc3)cc12 [compound 302] showed a pIC50 of over 7.00.
In the case of CC(C)(C#Cc1cnc2c(c1)[C@]1(COC(N)=N1)c1cc(-c3cccnc3)ccc1O2)N1CCC1 [compound 320], the pIC50 was over 7.00.
For NC1=N[C@@]2(CO1)c1cc(-c3cncc(Cl)c3)ccc1Oc1cnc(C3=CCOCC3)cc12 [compound 309], the pIC50 was over 7.00.
Compound Cc1cncc(-c2ccc3c(c2)[C@@]2(COC(N)=N2)c2cc(-c4ccnc(C)c4)ncc2O3)c1 [compound 307] has a pIC50 of over 7.00.
In the case of CC(C)(C)C#Cc1cnc2c(c1)[C@]1(COC(N)=N1)c1cc(-c3cncc(C#N)c3)ccc1O2 [compound 317], the pIC50 was over 7.00.
Compound Cc1cc(-c2cc3c(cn2)Oc2ccc(-c4ccc(F)nc4)cc2[C@@]32COC(N)=N2)ccn1 [compound 313] has a pIC50 of over 7.00.
In the case of NC1=N[C@@]2(CO1)c1cc(-c3ccc(F)nc3)ccc1Oc1cnc(-c3ccnc(F)c3)cc12 [compound 311], the pIC50 was over 7.00.
Work on CC1(C#Cc2cnc3c(c2)[C@]2(COC(N)=N2)c2cc(-c4cccc(Cl)c4)ccc2O3)COC1 [compound 314] yielded a pIC50 of over 7.00.
Work on NC1=N[C@@]2(CO1)c1cc(-c3ccc(F)nc3)ccc1Oc1cnc(Cl)cc12 [compound 310] yielded a pIC50 of 6.00 to 7.00.
In the case of CC(C)(C#N)COc1ccc2c(c1)[C@@]1(COC(N)=N1)c1cc(-c3ccc(OC(F)(F)F)cc3)cnc1O2 [compound 342], the pIC50 was over 7.00.
Work on CC(C)(C)C#Cc1cnc2c(c1)[C@]1(COC(N)=N1)c1cc(OCC(C)(C)C#N)ccc1O2 [compound 319] yielded a pIC50 of over 7.00.
Work on Cc1cncc(-c2ccc3c(c2)[C@@]2(COC(N)=N2)c2cc(C4CCOCC4)ncc2O3)c1 [compound 308] yielded a pIC50 of over 7.00.
In the case of COc1ccc(-c2cnc3c(c2)[C@]2(COC(N)=N2)c2cc(-c4cccnc4F)ccc2O3)cn1 [compound 344], the pIC50 was over 7.00.
Compound Cc1cncc(-c2ccc3c(c2)[C@@]2(COC(N)=N2)c2cc(-c4cccnc4)ncc2O3)c1 [compound 306] has a pIC50 of over 7.00.
CC(C)(C)COc1cnc2c(c1)[C@]1(COC(N)=N1)c1cc(C#CC3(C)COC3)ccc1O2 [compound 323] was tested, and the pIC50 was over 7.00.
Cn1cc(-c2cnc3c(c2)[C@]2(COC(N)=N2)c2cc(-c4cccnc4F)ccc2O3)cn1 [compound 346] was tested, and the pIC50 was over 7.00.
In the case of CC(C)(C)C#Cc1cnc2c(c1)[C@]1(COC(N)=N1)c1cc(-c3cccc(C#N)c3)ccc1O2 [compound 318], the pIC50 was over 7.00.
NC1=N[C@@]2(CO1)c1cc(-c3cccc(Cl)c3)ccc1Oc1ncc(C3=CCOCC3)cc12 [compound 322] was tested, and the pIC50 was over 7.00.
Cc1ccc(-c2cnc3c(c2)[C@]2(COC(N)=N2)c2cc(-c4cccnc4F)ccc2O3)cn1 [compound 339] was tested, and the pIC50 was over 7.00.
NC1=N[C@@]2(CO1)c1cc(-c3cccc(Cl)c3)ccc1Oc1ncc(-c3ccncc3)cc12 [compound 345] showed a pIC50 of over 7.00.
With CC1(C)CCN(c2cnc3c(c2)[C@]2(COC(N)=N2)c2cc(-c4cccnc4F)ccc2O3)C1 [compound 316] the pIC50 was over 7.00.
